{
  "source": "ChEMBL document CHEMBL1177813",
  "about": "“Design and synthesis of trivalent ligands targeting opioid, cholecystokinin, and melanocortin receptors for the treatment of pain” (Bioorg Med Chem Lett, 2010)",
  "key": {"Mu-type opioid receptor": {"target": "Mu-type opioid receptor (Rattus norvegicus, UniProt P33535)", "sequence (P33535 whole entry)": "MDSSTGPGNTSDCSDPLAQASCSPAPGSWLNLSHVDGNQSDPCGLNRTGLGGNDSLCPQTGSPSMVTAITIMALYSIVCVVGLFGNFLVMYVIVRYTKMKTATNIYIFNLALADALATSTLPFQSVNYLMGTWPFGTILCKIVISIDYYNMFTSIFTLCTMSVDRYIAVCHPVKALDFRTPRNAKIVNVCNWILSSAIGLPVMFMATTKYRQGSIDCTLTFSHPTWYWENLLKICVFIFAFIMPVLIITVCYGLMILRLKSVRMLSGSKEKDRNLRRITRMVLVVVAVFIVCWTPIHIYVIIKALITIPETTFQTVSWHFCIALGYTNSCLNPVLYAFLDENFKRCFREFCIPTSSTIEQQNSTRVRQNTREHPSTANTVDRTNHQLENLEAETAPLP", "assay": "Displacement of [3H]DAMGO from rat mu opioid receptor expressed in mouse HN9.10 cells", "format": "cell-based"}, "[1]": {"target": "Delta-type opioid receptor (Homo sapiens, UniProt P41143)", "sequence (P41143 whole entry)": "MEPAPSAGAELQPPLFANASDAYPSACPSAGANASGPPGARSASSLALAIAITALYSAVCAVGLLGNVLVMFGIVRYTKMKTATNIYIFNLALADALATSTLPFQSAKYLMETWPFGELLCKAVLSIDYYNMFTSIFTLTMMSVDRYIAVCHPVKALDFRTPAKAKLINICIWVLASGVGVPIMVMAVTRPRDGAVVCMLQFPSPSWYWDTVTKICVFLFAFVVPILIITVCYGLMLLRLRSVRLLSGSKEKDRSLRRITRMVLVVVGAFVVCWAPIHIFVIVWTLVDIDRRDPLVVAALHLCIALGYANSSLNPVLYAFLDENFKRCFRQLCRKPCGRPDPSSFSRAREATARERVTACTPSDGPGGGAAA", "assay": "Displacement of [3H]DPDPE from human delta opioid receptor expressed in mouse HN9.10 cells", "format": "cell-based"}, "[2]": {"target": "Mu-type opioid receptor (Cavia porcellus) (UniProt P97266)", "sequence (P97266 whole entry)": "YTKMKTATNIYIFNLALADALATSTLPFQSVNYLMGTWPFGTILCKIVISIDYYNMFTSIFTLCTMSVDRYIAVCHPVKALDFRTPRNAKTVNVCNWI", "assay": "Agonist activity at mu opioid receptor in guinea pig ileum assessed as inhibition of electrically-stimulated muscle contraction at 1 uM", "format": "functional, tissue-based", "set-up": "scale not given: the % may be the effect or the level left"}, "[3]": {"target": "Delta-type opioid receptor (Mus musculus, UniProt P32300)", "sequence (P32300 whole entry)": "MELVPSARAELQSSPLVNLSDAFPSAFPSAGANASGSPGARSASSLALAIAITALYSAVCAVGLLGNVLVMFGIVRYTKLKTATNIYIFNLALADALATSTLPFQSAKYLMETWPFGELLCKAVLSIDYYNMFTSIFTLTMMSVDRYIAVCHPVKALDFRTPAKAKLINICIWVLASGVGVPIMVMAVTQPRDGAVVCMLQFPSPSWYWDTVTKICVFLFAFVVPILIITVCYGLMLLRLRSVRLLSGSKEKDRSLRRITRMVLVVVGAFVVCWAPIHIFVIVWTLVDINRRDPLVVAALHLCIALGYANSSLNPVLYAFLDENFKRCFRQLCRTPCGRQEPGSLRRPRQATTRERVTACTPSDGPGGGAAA", "assay": "Antagonist activity at delta opioid receptor in mouse vas deferens assessed as inhibition of DPDPE-induced muscle contraction", "format": "functional, tissue-based"}, "Melanocortin receptor 4": {"target": "Melanocortin receptor 4 (Homo sapiens, UniProt P32245)", "sequence (P32245 whole entry)": "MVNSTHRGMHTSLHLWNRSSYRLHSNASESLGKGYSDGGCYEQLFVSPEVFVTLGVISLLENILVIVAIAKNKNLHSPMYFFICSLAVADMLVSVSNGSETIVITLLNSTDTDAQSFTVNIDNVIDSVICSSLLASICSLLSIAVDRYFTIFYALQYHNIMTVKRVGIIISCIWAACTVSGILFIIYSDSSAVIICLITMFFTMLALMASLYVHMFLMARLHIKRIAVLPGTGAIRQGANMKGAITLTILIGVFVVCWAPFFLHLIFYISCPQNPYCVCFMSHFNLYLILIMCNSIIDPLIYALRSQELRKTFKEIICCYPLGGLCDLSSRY", "assay": "Displacement of Eu-NDP-alphaMSH from human MC4 receptor expressed in human HEK293 cells", "format": "cell-based"}, "Cavia porcellus": {"organism": "Cavia porcellus", "assay": "[…] activity at CCK receptor in Hartley guinea pig ileum longitudinal muscle with myenteric plexus assessed as inhibition of CCK8-stimulated muscle contraction at 1 uM", "format": "functional, tissue-based"}, "[4]": {"target": "T1, Gastrin/cholecystokinin type B receptor (Homo sapiens, UniProt P32239)", "T1 sequence (P32239 whole entry)": "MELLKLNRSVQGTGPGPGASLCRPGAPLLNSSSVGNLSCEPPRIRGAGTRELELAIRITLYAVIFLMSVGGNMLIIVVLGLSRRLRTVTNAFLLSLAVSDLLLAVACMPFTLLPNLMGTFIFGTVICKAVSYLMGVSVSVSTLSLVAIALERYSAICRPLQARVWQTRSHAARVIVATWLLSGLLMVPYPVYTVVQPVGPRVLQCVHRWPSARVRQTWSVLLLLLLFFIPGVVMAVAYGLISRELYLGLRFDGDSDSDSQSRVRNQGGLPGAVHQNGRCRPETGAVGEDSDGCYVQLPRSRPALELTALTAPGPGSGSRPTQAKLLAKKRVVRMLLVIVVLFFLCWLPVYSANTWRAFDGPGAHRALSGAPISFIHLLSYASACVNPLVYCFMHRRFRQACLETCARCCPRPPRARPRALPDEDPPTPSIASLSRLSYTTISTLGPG", "assay": "Displacement of [125I]CCK-8(SO3) from human CCK2 receptor expressed in human HEK293 cells", "format": "cell-based"}, "[5]": {"target": "T2, Cholecystokinin receptor type A (Homo sapiens, UniProt P32238)", "T2 sequence (P32238 whole entry)": "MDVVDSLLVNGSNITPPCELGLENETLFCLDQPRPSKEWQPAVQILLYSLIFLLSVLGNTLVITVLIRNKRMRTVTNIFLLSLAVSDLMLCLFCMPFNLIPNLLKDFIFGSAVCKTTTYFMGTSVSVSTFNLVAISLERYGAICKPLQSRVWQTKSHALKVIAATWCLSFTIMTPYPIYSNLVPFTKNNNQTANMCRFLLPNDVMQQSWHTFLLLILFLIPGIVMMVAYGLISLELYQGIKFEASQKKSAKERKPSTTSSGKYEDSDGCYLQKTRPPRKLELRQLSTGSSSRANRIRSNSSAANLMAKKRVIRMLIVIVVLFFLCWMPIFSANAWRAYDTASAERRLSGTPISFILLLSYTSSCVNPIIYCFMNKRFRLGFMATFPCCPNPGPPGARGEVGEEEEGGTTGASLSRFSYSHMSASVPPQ", "assay": "Displacement of [125I]CCK-8(SO3) from human CCK1 receptor expressed in human HEK293 cells", "format": "cell-based"}, "[6]": {"assay": "Agonist activity at CCK receptor in Hartley guinea pig ileum longitudinal muscle with myenteric plexus assessed as inhibition of electrically-stimulated muscle contraction at 1 uM relative to KCl", "format": "functional, Cavia porcellus", "set-up": "scale not given: the % may be the effect or the level left"}},
  "note": "Active and inactive are the calls of the source. The rule behind the calls is not given here.",
  "data": [
    {"smiles": "CCCC[C@H](NC(=O)[C@H](Cc1c[nH]c2ccccc12)NC(=O)[C@H](CCCNC(=N)N)NC(=O)[C@@H](Cc1ccc2ccccc2c1)NC(=O)[C@H](Cc1cnc[nH]1)NC(=O)[C@@H]1Cc2ccccc2CN1C(=O)C(N)Cc1c(C)cc(O)cc1C)C(=O)N[C@@H](CC(=O)O)C(=O)N[C@@H](Cc1ccccc1)C(N)=O", "note": "(single isomer, unassigned)", "values": [
      {"measurement": "IC50", "setting": "Mu-type opioid receptor", "value": 100, "unit": "nM"},
      {"measurement": "Ki", "setting": "Mu-type opioid receptor", "value": 47, "unit": "nM"},
      {"measurement": "IC50", "setting": "[1]", "value": 2, "unit": "nM"},
      {"measurement": "Ki", "setting": "[1]", "value": 0.91, "unit": "nM"},
      {"measurement": "Activity", "setting": "[2]", "value": 5, "unit": "%"},
      {"measurement": "IC50", "setting": "[3]", "value": 2.5, "unit": "nM"},
      {"measurement": "IC50", "setting": "Melanocortin receptor 4", "value": 230, "unit": "nM"},
      {"measurement": "Ke", "setting": "Cavia porcellus", "value": "inactive"},
      {"measurement": "IC50", "setting": "[4]", "value": 200, "unit": "nM"},
      {"measurement": "Ki", "setting": "[4]; read-out: Ki", "value": 200, "unit": "nM"},
      {"measurement": "IC50", "setting": "[5]", "value": 15.8, "unit": "nM"},
      {"measurement": "Ki", "setting": "[5]; read-out: Ki", "value": 15, "unit": "nM"},
      {"measurement": "Activity", "setting": "[6]", "value": 0, "unit": "%"}
    ]}
  ]
}
